Several values for one entry are separate records, joined by “and”; a condition that tells them apart may be missing. Equal values may be shown once. Read-outs that look alike come from different tables or passages of the source.
Target: T1, EphA3-EphrinA1 (Homo sapiens, UniProt P29320)
T1 sequence (P29320 21-541 limits assumed): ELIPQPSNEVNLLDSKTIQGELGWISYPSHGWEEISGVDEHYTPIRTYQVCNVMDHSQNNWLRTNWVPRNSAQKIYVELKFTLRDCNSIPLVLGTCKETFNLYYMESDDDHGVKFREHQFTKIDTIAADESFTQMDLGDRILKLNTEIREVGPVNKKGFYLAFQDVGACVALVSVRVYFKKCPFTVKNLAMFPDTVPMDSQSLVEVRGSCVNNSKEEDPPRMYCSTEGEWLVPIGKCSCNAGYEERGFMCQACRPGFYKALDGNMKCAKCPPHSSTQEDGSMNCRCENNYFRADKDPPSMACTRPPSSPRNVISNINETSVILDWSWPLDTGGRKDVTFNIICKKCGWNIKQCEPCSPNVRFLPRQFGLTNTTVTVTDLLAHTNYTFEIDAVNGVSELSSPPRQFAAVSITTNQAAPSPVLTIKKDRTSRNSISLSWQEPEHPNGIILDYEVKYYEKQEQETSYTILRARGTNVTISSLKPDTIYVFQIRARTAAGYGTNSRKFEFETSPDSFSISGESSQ
Assay: Octet, immobilized human EphA3 binding to human EphrinA1
Details: for IC50: immobilized human EphA3, 50 nM soluble human EphrinA1
Experimental: The Octet system was used to probe the interactions of epitope-tagged human A class proteins, focusing on immobilized EphA3 binding to two of its cognate ligands, EphrinA1 and EphrinA5, as well as EphB2 binding to EphrinA5 (FIG. 27). […] Focusing on the dimerization-driven EphA3-EA5 interaction first (green sensorgram trace), which mimics what is disclosed above for EphB4-EB2, the initial binding of soluble EphrinA5 to the immobilized EphA3 is very fast and strong with a long and steep 84° slope of response that then quickly bends around 35 sec into the association step to form a more gradual tetramerization accumulation slope. […] However, again like the EphB4-EB2 interaction, once placed into dissociation, a significant fraction of the bound EA5 protein melts quickly and the off phase continues downward with a slow gradual decline in bound protein. Although the dissociation was for only 500 sec, the continued downward slope of the response indicates most of the bound EA5 protein would eventually melt off of the immobilized EphA3 protein. This is referred to as a classic dimerization-driven interaction, fast and strong initial binding in the association step but with most of the bound protein coming off in the dissociation due to lack of formation of stable tetramers. EphA3 interacts with EphrinA1 with totally different kinetics/dynamics (orange sensorgram trace). Here, the initial high 84° dimerization slope phase is extremely brief (5 sec) with the binding quickly snapping into a linear tetramerization accumulation phase with a 25° slope, and that once placed into dissociation step almost no bound protein melts, just the small amount that would represent dimer interactions falling off in the first few seconds after being placed into dissociation. […] EphB2 interacting with EA5 is similar to the EphA3-EA1 interaction, in that the association step is characterized by a very brief (5 sec) high 84° slope phase that quickly bends into a more gradual tetramer accumulation phase (blue sensorgram trace). […] The strong initial off phase of the EphB2-EA5 complexes in the dissociation represents both the melting of weak dimers and of the relatively weaker affinity tetramers formed by the cross A/B class EphB2-EA5 molecules.
While there is no effect of A20 on the initial 5 sec fast EphA3-EA1 dimer phase, there is a very strong effect of compound on tetramer accumulation. It was estimated that >70% of the EphA3-EA1 binding interaction can be attributed to the tetramer which is effectively disrupted by compound, with very little binding activity attributed to the dimer and more accurately the dimerization:tetramerization ratio of this interaction is 10:90 not 30:70. […] Since this is a dimerization-driven type interaction (dimerization:tetramerization ratio of here is 72:28), the overall effect of compound on this interaction is muted.

[1] = Human EphA3-EphrinA1, association, absolute, read-out: Absolute Association IC50
[2] = Human EphA3-EphrinA1, dissociation, absolute, read-out: Absolute Dissociation IC50
[3] = Relative Association IC50, Human EphA3-EphrinA1, association, relative
[4] = Relative Dissociation IC50, Human EphA3-EphrinA1, dissociation, relative
[5] = Absolute Association IC50, Human EphA3-EphrinA1, association, absolute
[6] = Human EphA3-EphrinA1, association, relative, read-out: Relative Association IC50
[7] = Human EphA3-EphrinA1, dissociation, relative, read-out: Relative Dissociation IC50

## O=S1(=O)CCN(Cc2ccc(O)c3ncccc23)CC1 [Compound 15, 4-((8-hydroxyquinolin-1-ium-5-yl)methyl)thiomorpholin-4-ium 1,1-dioxide chloride]
[1]
  IC50: 100 µM
[2]
  IC50: 29.3 µM
[3]
  IC50: 12.3 µM
[4]
  IC50: 6 µM

## O=[N+]([O-])c1cc(CN2CCOCC2)c2cccnc2c1O [Compound 10, 4-((8-hydroxy-7-nitroquinolin-1-ium-5-yl)methyl)morpholin-4-ium chloride]
[5]
  IC50: 14 µM
Absolute Dissociation IC50, Human EphA3-EphrinA1, dissociation, absolute
  IC50: 6.3 µM
[6]
  IC50: 8.3 µM
[7]
  IC50: 4.23 µM

## Oc1c(Br)cc(CN2CCOCC2)c2cccnc12 [Compound 6, 4-((7-bromo-8-hydroxyquinolin-1-ium-5-yl)methyl)morpholin-4-ium chloride]
[2]
  IC50: 1.99 µM
[3]
  IC50: 7.24 µM

## Oc1c(I)cc(CN2CCOCC2)c2cccnc12 [Compound 8, 4-((8-hydroxy-7-iodoquinolin-1-ium-5-yl)methyl)morpholin-4-ium chloride]
[1]
  IC50: 0.45 µM and 1.45 µM
[6]
  IC50: 0.19 µM and 0.71 µM
[2]
  IC50: 1.2 µM and 1.52 µM
[7]
  IC50: 0.46 µM and 1.14 µM

## Oc1c(Br)cc(CN2CCOCC2)c2cccnc12 [Compound 5, 7-bromo-5-(morpholinomethyl)quinolin-8-ol]
1 μM, read-out: tetramers lost
  inhibition at 1 µM: ~50%
100 μM
  loss of tetramer formation: near complete loss of tetramer formation

## Oc1ccc(CN2CCOCC2)c2cccnc12 [Compound 1, 5-(morpholinomethyl)quinolin-8-ol]
[1]
  IC50: 8.24 µM
[6]
  IC50: 6.29 µM
[2]
  IC50: 6.73 µM
[7]
  IC50: 2.39 µM

## Oc1c(Cl)cc(CN2CCOCC2)c2cccnc12 [Compound 4, 4-((7-chloro-8-hydroxyquinolin-1-ium-5-yl)methyl)morpholin-4-ium chloride]
[5]
  IC50: 1.84 µM
[2]
  IC50: 0.9 µM
[7]
  IC50: 0.9 µM
[3]
  IC50: 0.89 µM

## Oc1ccc(CN2CCN(Cc3ccc(C(F)(F)F)cc3)CC2)c2cccnc12 [Compound 48, 5-((4-(4-(trifluoromethyl)benzyl)piperazin-1-yl)methyl)quinolin-8-ol]
[1]
  IC50: 100 µM
[6]
  IC50: 100 µM
[2]
  IC50: 9.4 µM
[4]
  IC50: 5.3 µM
